Where a name gives a salt, the structure may show the parent alone.
How the values were obtained:
[1] = Vaporization of apomorphine HCl film from drug foil substrate, Heat Source 2 (chemical heat package, Device 2); type: physicochemical; conditions: 0.44 mg/cm^2 coating, airflow ~30 L/min
Description: A 100 mm long device such as that in FIG. 1B, the same shape as that of the Adasuve® device, moulded from PermaStat® resin (antistatic material).
A 47.2×47.2×0.38 mm 304-stainless steel drug foil substrate is attached to a chemical heat package connected to Device 2.
In chemical heat package devices, an exothermic thermite reaction from the reactants inside of the heat package rapidly propagated (˜ 0.1 s) and generated heat nearly instantaneously, which vaporized the drug film. The reactants are calibrated to heat the drug foil substrate to a given temperature. Upper and lower housings were welded prior to vaporization. Devices were actuated with a constant airflow of ˜ 30 L/min.
(§1) […] was coated on 2.27 cm^2 (0.44 mg/cm^2) on the drug foil substrate of Heat Source 1 or 2 and heated to the temperatures specified in the table below.

[2] = Vaporization of apomorphine HCl film from drug foil substrate, Heat Source 1 (testing electric heating, Device 1); type: physicochemical; conditions: 0.44 mg/cm^2 coating, airflow ~30 L/min
Procedure: Device 1 has an air inlet and air outlet and a 1 F capacitor (Phoenix Gold Titanium series) to be discharged to resistively heat the substrate (<0.2 sec) and facilitate rapid aerosol formation with a cross-foil airflow of ˜ 30 L/min. Calibration for temperature versus applied voltage was determined with a thermocouple spot-welded to the foil surface.
A 12.7×63.5, 0.127 mm 304-stainless steel drug foil substrate attached to Device 1 with connexions to receive electrical power from an electrical source. Devices were actuated with a constant airflow of ˜ 30 L/min. An example is depicted in FIG. 1D.
as §1

[3] = Heat Source 2, substrate temp. 310 °C
[4] = Heat Source 2, substrate temp. 330 °C
[5] = Heat Source 1, substrate temp. 260 °C
[6] = Heat Source 1, substrate temp. 290 °C
[7] = Heat Source 1, substrate temp. 310 °C
[8] = Heat Source 1, substrate temp. 320 °C

## CN1CCc2cccc3c2[C@H]1Cc1ccc(O)c(O)c1-3 [apomorphine HCl]
[1]; [3]
  % Vaporization: 48.32 ± 16.77%
  Aerosol Purity (%): 91.71 ± 1.62%
[1]; [4]
  % Vaporization: 61.58 ± 2.07%
  Aerosol Purity (%): 87.51 ± 0.18%
[1]; Heat Source 2, substrate temp. 400 °C
  % Vaporization: 49.07 ± 1.12%
[2]; [5]
  % Vaporization: 40.57 ± 9.34%
  Aerosol Purity (%): 98.35 ± 0.64%
[2]; [6]
  % Vaporization: 58.03 ± 12.15%
  Aerosol Purity (%): 96.45 ± 0.93%
[2]; [7]
  % Vaporization: 59.69 ± 0.34%
  Aerosol Purity (%): 94.92 ± 1.12%
[2]; [8]
  % Vaporization: 66.14 ± 0.95%
  Aerosol Purity (%): 90.89 ± 0.78%
